What was measured:
osteoporosis = assay: Activity on bones found by the inventors (general statement)
rats = assay: Lifelong administration to rats (general statement on bone); format: in vivo, rat
From the text: One aspect of the present invention has been perfected based on the above findings. […] These findings are literally epochal in the light of the fact that the conventional pharmaceutical compositions for adjusting bone metabolism is found to be only capable of restoring bones having abnormality due to morbidity near to normality.

[1] = lifelong administration to rats

`C=C1CC[C@H](O)C/C1=C/C=C1\CCC[C@]2(C)[C@@H]([C@H](C)CCC(O)C(C)(C)O)CC[C@@H]12` (stereo partly shown) [24,25-(OH)2 -D3, 24,25-dihydroxy cholecalciferol] was tested, and the activity on osteoporosis (osteoporosis) was “activity of preventing osteoporosis”, the bone quality (rats; [1]) was “without affecting the bone quality” and the bone volume (rats; [1]) was “increasing bone volume”. For the same compound, the “bone strength vs non-administered normal mammals” value (rats; normal mammal, extension of the lifelong rat experiment) was “clearly surpassing the average bone strength of non-administered normal mammals”.
